Our source for the cytotoxicity values is ChEMBL document CHEMBL3507680, “University of Dundee, Gates Library screen for HepG2 cell viability”.

The data set in a line: Human HepG2 cell viability assay in 384 well format. Type of data set: toxicity, cell-based. Also on record: dose 125 nL, time 70.5 hour; concentration not given beside the values. The settings on record: HepG2 cells, read-out: Inhibition.
Consider `CC1CCCN(CCCNC(=O)c2cn(C)nc2-c2cccnc2)C1` (configuration not stated), for which the cytotoxicity at 70.5 h is -2.34%.

As to `COCC(=O)NS(=O)(=O)c1ccc(F)c(F)c1`, the cytotoxicity at 70.5 h was -2.65%.

`CCCN1CCCC1c1nc(Cc2ccc(F)cc2)no1` (configuration not stated): the cytotoxicity at 70.5 h is 15.1%.

Turning to `COc1cc(C)sc1C(=O)NCCC(=O)N(C)Cc1ccccc1`, the cytotoxicity at 70.5 h was -3.28%.

As to `CC(=O)N1CCCN(S(=O)(=O)c2cc3ccccc3o2)CC1`, the cytotoxicity at 70.5 h stood at 0.284%.

On to `Cn1cc(C(=O)NCCCN2CCCCCC2=O)c(-c2cccnc2)n1`, for which the cytotoxicity at 70.5 h turned out to be 11%.

For `COc1cc(C)sc1C(=O)NCCC(=O)N(C)c1ccccc1`, the cytotoxicity at 70.5 h was -2.86%.

`Cc1noc(C)c1CNC(C)c1ccc(S(=O)(=O)N(C)C)cc1` (configuration not stated): the cytotoxicity at 70.5 h is -2.42%.

As for `CCCNC(=O)CN1CCCC1c1nc(Cc2ccc(F)cc2)no1` (configuration not stated), the cytotoxicity at 70.5 h is -4.46%.

As to `O=C(NCCc1cccnc1)NC1CCOC2(CCCCC2)C1` (configuration not stated), the cytotoxicity at 70.5 h was found to be 17.8%.

Consider `Cc1cc(C(=O)Nc2ccc(CN3CCOCC3)cn2)n(C)n1`, for which the cytotoxicity at 70.5 h was -5.67%.

For `Cc1nc(CNCC2CCCN(C(=O)OC(C)(C)C)C2)cs1` (configuration not stated), the cytotoxicity at 70.5 h amounted to 27.5%.

For the compound `COc1ccc(OCCNC(=O)c2ccc3c(=O)[nH][nH]c(=O)c3c2)cc1`, the cytotoxicity at 70.5 h was -0.259%.

On to `O=C(NC1CCS(=O)(=O)c2ccccc21)c1cccs1` (configuration not stated), for which the cytotoxicity at 70.5 h was -7.77%.

With `CC(C)(CNC(=O)C1CCCN1S(C)(=O)=O)N1CCOCC1` (configuration not stated), the cytotoxicity at 70.5 h is -11%.

With `CCC(=O)Nc1ncn(Cc2cccnc2)n1`, the cytotoxicity at 70.5 h amounted to 15.8%.

On to `CCOCCCC(=O)NCc1ccc(N2CCCCC2)cc1`, for which the cytotoxicity at 70.5 h is -11.1%.

Regarding `CC(C)CCn1ccc(NC(=O)N2CCCC2CN2CCOCC2)n1` (configuration not stated), the cytotoxicity at 70.5 h was -7.64%.

Turning to `O=C(COc1ccc(-c2ccccc2)nc1)NCC1CC1`, the cytotoxicity at 70.5 h is -5.26%.

As for `CNC(=O)COc1ccc(-c2ccccc2)nc1`, the cytotoxicity at 70.5 h is -7.98%.

`CC(C)c1nnc2n1CCN(c1nn3cc(C(C)(C)C)nc3s1)C2`: the cytotoxicity at 70.5 h was -8.04%.

As to `Cc1ccc(C2CN(c3nnc(C(F)F)s3)CCO2)c(C)c1` (configuration not stated), the cytotoxicity at 70.5 h was -4.44%.

As for `CN(C)C(=O)Cn1cc(C(=O)NCCc2ccc(Cl)cc2Cl)nn1`, the cytotoxicity at 70.5 h is -0.867%.

Turning to `Cc1c(C(=O)NCCC(=O)N2CCOCC2)sc2ccc(F)cc12`, the cytotoxicity at 70.5 h is 1.17%.

For the compound `N#Cc1cccc(OCCN2CCCC2C(=O)NCC(F)(F)F)c1` (configuration not stated), the cytotoxicity at 70.5 h is -0.526%.

As for `Cc1nc(C(=O)N(C)C)nn1-c1ccccc1C(C)C`, the cytotoxicity at 70.5 h was determined as 0.366%.

On to `CC(C)c1nc(CN2CCN(C(=O)CC3CCCCC3)CC2)no1`, for which the cytotoxicity at 70.5 h is 7.95%.

As to `Cc1ccc(C)c(CC(=O)NC2(C#N)CCOCC2)c1`, the cytotoxicity at 70.5 h is 1.6%.

Regarding `C1=C(c2c[nH]c3ncccc23)CCN(Cc2nnc(C3CC3)o2)C1`, the cytotoxicity at 70.5 h amounted to 12.3%.

As to `CC(C)CNC(=O)CNC(=O)NC(c1nccs1)C1CC1` (configuration not stated), the cytotoxicity at 70.5 h worked out at 4.02%.

As for `CC(C)(C)C(=O)NCc1nccn1CCc1ccccc1`, the cytotoxicity at 70.5 h is -5.7%.

Turning to `CC(C)(O)CNC(=O)NCc1nccn1CCc1ccccc1`, the cytotoxicity at 70.5 h was -1.1%.

`Cc1noc(CN2CC=C(c3c[nH]c4ncccc34)CC2)n1`: the cytotoxicity at 70.5 h came to 20.4%.

With `CN(C(=O)NCc1nccn1CCc1ccccc1)C1CCC1`, the cytotoxicity at 70.5 h was 1.68%.

`O=C(NCc1nccn1CCc1ccccc1)NCC1(O)CCC1`: the cytotoxicity at 70.5 h is 1.18%.

Regarding `Cc1noc(CN(CCc2ccco2)Cc2cccc(C#N)c2)n1`, the cytotoxicity at 70.5 h was 2.9%.

Take `Cc1noc(CN(CCc2cccs2)Cc2cccc(C#N)c2)n1`: the cytotoxicity at 70.5 h stood at 0.848%.

Turning to `Cc1nc(C(=O)N(C)CC2CCCO2)nn1-c1ccccc1C(C)C` (configuration not stated), the cytotoxicity at 70.5 h was -5.46%.

On to `CC(C)(C)OC(=O)N1CCC(C(=O)NCc2ccccc2)C1` (configuration not stated), for which the cytotoxicity at 70.5 h turned out to be 7.59%.

For `CCN(CC1CCOC1)C(=O)c1ccc(N(C)C)cc1F` (configuration not stated), the cytotoxicity at 70.5 h was -1.53%.

Take `N#Cc1cccc(OCCN2CCCC2C(=O)Nc2nccs2)c1` (configuration not stated): the cytotoxicity at 70.5 h worked out at 29%.

`c1ccc(-c2nc(CNC3CCCN(c4cccnn4)C3)no2)cc1` (configuration not stated): the cytotoxicity at 70.5 h was 18.6%.

In the case of `NC(=O)c1ccc(N2CCCCC2)c(NC(=O)c2ccc(F)cc2F)c1`, the cytotoxicity at 70.5 h stood at 3.5%.

As for `O=C(NC1CC1)C1CCN(Cn2nc(-c3ccccc3)oc2=O)CC1`, the cytotoxicity at 70.5 h was 25.1%.

`NC(=O)c1ccc(N2CCCCC2)c(NC(=O)c2cc(Br)ccc2Cl)c1`: the cytotoxicity at 70.5 h stood at 16.1%.

Take `CCCNC(=O)Cc1c(C)nc2c(c1C)c(=O)[nH]n2C`: the cytotoxicity at 70.5 h was 1.36%.

Take `NC(=O)C1CCN(Cn2nc(-c3ccc(F)cc3)oc2=O)C1` (configuration not stated): the cytotoxicity at 70.5 h was -7.79%.

For the compound `CC(NC(=O)NCc1cscn1)c1ccc(N2CCOCC2)cc1` (configuration not stated), the cytotoxicity at 70.5 h is -0.548%.

`CCc1nc(CN2CCCN(c3ncnc4ccsc34)CC2)no1`: the cytotoxicity at 70.5 h was 8.93%.

`CCc1nc(CN2CCCN(c3cnc4ccccc4n3)CC2)no1`: the cytotoxicity at 70.5 h was -2.11%.

In the case of `CC(C)(C)c1nc(CNC2CCCN(c3cccnn3)C2)no1` (configuration not stated), the cytotoxicity at 70.5 h is -0.0267%.

In the case of `c1cnnc(N2CCCC(NCc3nc(-c4cccs4)no3)C2)c1` (configuration not stated), the cytotoxicity at 70.5 h was -6.61%.

For `NS(=O)(=O)CCNC(=O)C1(c2ccccc2)CC1`, the cytotoxicity at 70.5 h was -1.21%.

As to `Cc1cc(Cl)ccc1S(=O)(=O)NCC(C)N1CCN(C)CC1` (configuration not stated), the cytotoxicity at 70.5 h was -0.894%.

As to `Cc1ccc(-c2ccc(C(=O)NCC(N)=O)c(F)c2)cc1`, the cytotoxicity at 70.5 h is 1.46%.

Consider `Cc1nc(CN2CCN(c3ncnc4ccccc34)CC2)no1`, for which the cytotoxicity at 70.5 h was 4.67%.

On to `COc1ncccc1C(=O)NC1(c2cccc(F)c2)CCOCC1`, for which the cytotoxicity at 70.5 h turned out to be 22.6%.

As for `CN(C)c1cc(C(=O)NC2(c3cccc(F)c3)CCOCC2)ccn1`, the cytotoxicity at 70.5 h was -1.02%.

For `Cc1cc(CNC(=O)NCc2ccccc2N2CCOCC2)no1`, the cytotoxicity at 70.5 h was determined as 1.76%.

`CC(C)(C)OC(=O)N1CCCc2ccc(NCc3cc[nH]c3)cc21`: the cytotoxicity at 70.5 h was -9.07%.

On to `CC(C)C1CN(C(=O)c2ccccc2)CCS1` (configuration not stated), for which the cytotoxicity at 70.5 h came out at 2.34%.

Regarding `CC(C)C1CN(C(=O)c2ccncc2)CCS1` (configuration not stated), the cytotoxicity at 70.5 h was -1.14%.

As for `CC(CNS(=O)(=O)c1cccc(Cl)c1)N1CCN(C)CC1` (configuration not stated), the cytotoxicity at 70.5 h is -5.03%.

With `Cc1ccc(S(=O)(=O)NCCCN2CCC(O)CC2)c(F)c1`, the cytotoxicity at 70.5 h was determined as 18.4%.

Turning to `CN(Cc1ccc(F)cc1)C(=O)CN1CCCCC1Cn1cncn1` (configuration not stated), the cytotoxicity at 70.5 h was -3.07%.

Take `CC(C)c1cccc(S(=O)(=O)NCCCN2CCC(O)CC2)c1`: the cytotoxicity at 70.5 h was 3.11%.

For the compound `CN1CC(C(=O)N2CCC(Oc3ccccc3Cl)CC2)CC1=O` (configuration not stated), the cytotoxicity at 70.5 h was -1.46%.

Consider `Cc1cn2c(n1)CCC(NC(=O)CCOc1ccccc1F)C2` (configuration not stated), for which the cytotoxicity at 70.5 h was -5.57%.

Regarding `Cc1cc(C)n(C2CN(CC(=O)N(C)Cc3cnn(C)c3)C2)n1`, the cytotoxicity at 70.5 h is -7%.

Take `O=C(c1ccoc1)N1CCN(Cc2ccccc2F)CC1`: the cytotoxicity at 70.5 h was -3.32%.

As to `Cc1ccc(CNC(=O)NC(C)CN2CCOCC2)s1` (configuration not stated), the cytotoxicity at 70.5 h is -6.15%.

In the case of `COC(=O)N1CCN(Cc2csc(-c3ncccn3)n2)CC1`, the cytotoxicity at 70.5 h is -5.37%.

In the case of `O=C(COc1cccc2c1CCC2=O)NCC(F)(F)F`, the cytotoxicity at 70.5 h was -2.4%.

With `N#CCc1ccc(NC(=O)CNc2ccc(Br)cc2F)cc1`, the cytotoxicity at 70.5 h was -7.86%.

`Cc1ccc(C)c(NC(=O)c2cc(S(=O)(=O)N3CCSCC3)c[nH]2)c1`: the cytotoxicity at 70.5 h is 7.14%.

Take `Cc1nnc(NC(=O)c2cc(S(=O)(=O)N3CCSCC3)c[nH]2)s1`: the cytotoxicity at 70.5 h is -0.0324%.

Regarding `CC(CN1CCOCC1)NC(=O)NCc1cccs1` (configuration not stated), the cytotoxicity at 70.5 h is -7.69%.

In the case of `CCc1nnc2n1CCN(C(=O)C(OC)c1ccccc1)C2` (configuration not stated), the cytotoxicity at 70.5 h was -8.62%.

On to `c1cnc(N2CCC(NCc3cnc(C4CCC4)s3)CC2)nc1`, for which the cytotoxicity at 70.5 h was -11.5%.

With `c1ccc(CN2CCC(NCCc3ccc4c(c3)CCO4)CC2)nc1`, the cytotoxicity at 70.5 h came to 0.552%.

For `COCCOc1cc(C(=O)N2CC(C)c3ccccc32)ccn1` (configuration not stated), the cytotoxicity at 70.5 h was -11.1%.

Regarding `COc1cccc(NC(C(N)=O)c2ccc(Br)cc2)c1` (configuration not stated), the cytotoxicity at 70.5 h was -10.7%.

As for `NC(=O)CN1CCC(NC(=O)N2CCCC2c2ccsc2)CC1` (configuration not stated), the cytotoxicity at 70.5 h is -6.14%.

In the case of `CN(C(=O)CN1CCCc2cc(F)cc(F)c21)c1ccccc1`, the cytotoxicity at 70.5 h was -16.8%.

Consider `CC(C)N(Cc1ccccc1)Cc1csc(-c2ncccn2)n1`, for which the cytotoxicity at 70.5 h was -10.1%.

Consider `Cc1nnc2n1CCN(C(=O)CN1C(=O)CCOc3ccccc31)C2`, for which the cytotoxicity at 70.5 h is -7.17%.

For `Cc1noc(C)c1CN(C)C(=O)c1ccc2c(c1O)OC(C)(C)C2`, the cytotoxicity at 70.5 h was 1.38%.

In the case of `N#Cc1ccc(NCc2cccc(COC3CCOCC3)c2)nc1`, the cytotoxicity at 70.5 h was -2.1%.

As to `CC(C)Cc1nc(COc2ccc(N(C)C(N)=O)cc2)no1`, the cytotoxicity at 70.5 h is -2.35%.

For the compound `Cn1cccc1C(=O)NS(=O)(=O)c1cnn(-c2ccccc2F)c1`, the cytotoxicity at 70.5 h stood at 11.6%.

Turning to `COC(C)c1cccc(NC(=O)N(CCC#N)Cc2ccccn2)c1` (configuration not stated), the cytotoxicity at 70.5 h is -6.49%.

On to `CCc1cnc(CN2C(=O)CC3(CCSC3)C2=O)o1` (configuration not stated), for which the cytotoxicity at 70.5 h turned out to be 11.4%.

Consider `CC(C)c1nc(S(=O)(=O)N2CCSc3ccccc32)c[nH]1`, for which the cytotoxicity at 70.5 h was -3.59%.

Consider `O=C(C1CCCOC1)N1CCCCc2ccccc21` (configuration not stated), for which the cytotoxicity at 70.5 h is -12.1%.

For the compound `CCN1CCN(C(=O)c2c[nH]c(C(C)C)n2)c2ccccc21`, the cytotoxicity at 70.5 h came out at 2.09%.

For `CC(C)c1nnc(CN(C)C(c2ccccc2)c2ccc(F)cc2)o1` (configuration not stated), the cytotoxicity at 70.5 h was -2.6%.

For `O=C(C1CCCOC1)N1CCCc2ccccc21` (configuration not stated), the cytotoxicity at 70.5 h was -4.78%.

Consider `CC(C)c1nnc(CN(C)C(c2ccc(F)cc2)c2cccnc2)o1` (configuration not stated), for which the cytotoxicity at 70.5 h was -2.85%.

Regarding `CCN1CCN(S(=O)(=O)c2cn(C(C)C)cn2)c2ccccc21`, the cytotoxicity at 70.5 h is -1.25%.

Consider `Cc1cc(CNc2ccc3nc(C)sc3c2)no1`, for which the cytotoxicity at 70.5 h is -4.46%.

For `COCCN(Cc1ccccc1)Cc1csc(-c2ncccn2)n1`, the cytotoxicity at 70.5 h is -4.86%.

As to `CC(C)N(CC(N)=O)Cc1csc(-c2ncccn2)n1`, the cytotoxicity at 70.5 h was -2.81%.
